In patent US6451334B2, “Compositions and administration of compositions for the treatment of blood disorders” (priority 1997, dated 2002):
Entries after “also recorded” stand apart in the source; their conditions may differ. Like-named read-outs stand apart in the source and are kept apart here.

Experiments:
K562 cells = assay: Treatment of K562 cells and analysis of globin mRNA by primer extension; assay type: cell-based, human; details: for Radioactivity Alpha Globin (α) mRNA / Radioactivity Fetal Globin (γ) mRNA / γ/α / stimulating γ globin compared to control cells (ranking in words): K562 cells; for Radioactivity Alpha Globin (α) mRNA / Radioactivity Fetal Globin (γ) mRNA: phosphorimager; for γ/α: ratio of globin mRNA radioactivity; for fold induction at 1000 µM: Homo sapiens, K562, 72 h, read-out: increase in γ-globin mRNA over constitutive levels in untreated control K562 cells; for pattern of globin gene stimulation in K562 cells: α and γ globin mRNA
Procedure: K562 cells kindly provided by Dr. George Atweh were cultured with 10% fetal bovine serum (Sigma, St. Louis, Mo.) and RPMI media (Grand Island Biological Company, Grand Island, N.Y.) in a humidified atmosphere with 5% CO2/95% air. Compounds were tested at a final concentration of 1 mM at neutral pH and included butyric acid, phenoxyacetic acid, dimethylbutric acid, alpha-methylhydrocionamic acid, 2,3, and 4-methoxyhydrocinnamic acid, dihydrocinnamic acid, methoxycinnamic acid, methoxyacetic acid, phenylpropionic acid, amino hydrocinnamic acid, DL β- and DL-βamino-n-butyric acid, cinnamic acid, and 2 methylhydrocinnamic acid (Aldrich Chemical Company, St. Louis, Mo.). Additional compounds studied included dimethylhydroxy acetic acid, dimethylpropionic acid, dimethylphenoxyacetic acid, and dimethylmethoxyacetic acid. After three days of culture with these agents, mRNA was purified and α, β, and γ globin mRNA was analyzed by primer extension using oligonucleotide primers and quantitation on a PhosphoImager as previously described.

[1] = tested on: mice transgenic for a human beta globin locus YAC containing a silenced gamma globin gene; assay: In vivo experiments in mice transgenic for the human beta globin gene locus
Procedure: Three prototype compounds, methylhydrocinnamic acid (MHCA), phenoxyacetic acid (PAA), and dimethylbutyric acid PMB), were administered at doses from 100 to 250 mg/kg in two daily doses by intraperitoneal injection to mice transgenic for a human beta globin locus YAC containing a silenced gamma globin gene. Reticulocytes, newly synthesized red blood cells, were counted daily and non-alpha globin in MRNA was analyzed by Rnase protection. Only 50 microliters of blood were removed daily for testing. A 5 to 10-fold increase in reticulocytes and a 1.7-2.4 fold increase in gamma globin mRNA was observed within one week of therapy with the three protype compounds. In contrast, control mice to which normal saline was administered, with the same degree of phlebotomy for testing, had no significant changes in reticulocytes or globin in mRNA.

cell viability = assay: DNA fragmentation assays (cell viability); assay type: cell-based
From the text: Normal cell viability, the viability of an untransformed or uninfected cell, can be determined from analyzing the effects of the composition on one or more biological processes of the cell. Detrimental interference with one or more of these cellular processes becomes significant when the process becomes abnormal. Examples of quantitatable and qualifiable biological processes include the processes of cell division, protein synthesis, nucleic acid (DNA or RNA) synthesis, nucleic acid (principally DNA) fragmentation and apoptosis. Others processes include specific enzyme activities, the activities of the cellular transportation systems such as the transportation of amino acids by system A (neutral), system B (acidic) or system C (basic), and the expression of a cell surface protein. […] Abnormal cell division, for example, can be mitosis which occurs too rapidly, as in a malignancy, or unstably, resulting in programmed cell death or apoptosis, detected by increased DNA degradation. The determination of abnormal cell viability can be made on comparison with untreated control cells. […] Increased cell viability can be determined by those of ordinary skill in the art using, for example, DNA fragmentation analysis. […] Determinations of increased or decreased viability can also be concluded from an analysis of the results of multiple different assays. Where multiple tests provide conflicting results, accurate conclusions can still be drawn by those of ordinary skill based upon the cell type, the correctness or correlation of the tests with actual conditions and the type of composition.

[2] = tested on: system A transport of amino acids; assay: System A transport of amino acids; assay type: cell-based
From the text: Normal cell viability, the viability of an untransformed or uninfected cell, can be determined from analyzing the effects of the composition on one or more biological processes of the cell. Detrimental interference with one or more of these cellular processes becomes significant when the process becomes abnormal. Examples of quantitatable and qualifiable biological processes include the processes of cell division, protein synthesis, nucleic acid (DNA or RNA) synthesis, nucleic acid (principally DNA) fragmentation and apoptosis. Others processes include specific enzyme activities, the activities of the cellular transportation systems such as the transportation of amino acids by system A (neutral), system B (acidic) or system C (basic), and the expression of a cell surface protein. […] Abnormal cell division, for example, can be mitosis which occurs too rapidly, as in a malignancy, or unstably, resulting in programmed cell death or apoptosis, detected by increased DNA degradation. The determination of abnormal cell viability can be made on comparison with untreated control cells. Compositions preferably increase normal cell viability. Increased cell viability can be determined by those of ordinary skill in the art using, for example, DNA fragmentation analysis. […]

in vivo = details: monkey, po
Procedure: Chronic indwelling venous and arterial catheters which were maintained using sterile technique for blood sampling. Compounds were administered by nasogastric tube and blood was collected to determine drug plasma levels at regular intervals following single oral doses. […] The test compounds were analyzed after ether extraction of the plasma, separation by HPLC, and quantitated by comparison to a spilled internal standard of heptanoic acid according to previously described methods.

[3] = tested on: Mononuclear cells from patients with sickle cell disease or thalassemia trait; assay: Erythroid colony (BFU-E) cultures in methylcellulose; assay type: cell-based, human; details: 0.2-0.5 mM, optimal growth factors; for % Increase over control: BFU-E
Procedure: Mononuclear cells from patients with sickle cell disease or thalassemia trait were isolated on Ficoll Hypague, washed, and cultured in methylcellulose media with optimal concentrations of hematopoietic growth factors IL-3, GM-CSF, Stem Cell Factor, IL6, 3 U/ml Eiythropoietin, insulin, bovine serum albumin, and 0.2-0.5 mM concentrations of test compounds of derivatives of cinnamic acid and hydrocinnamic acid. […] The following illustrates some representative cultures: […]

[4] = tested on: c-myb, c-myc, actin, and histone H3; assay: Northern blots of growth related genes in 32D cells; assay type: cell-based, murine; details: low IL-3, 1 mM, Northern blot
Procedure: Cell proliferation stimulation is transgenic mice, baboons, human cell culture, and a murine multi-lineage cell line by the active compounds, genes whose expression is increased early in cell proliferation induced by hematopoietic growth factors such as IL-3 and erythropoietin were examined. RNA was extracted from 32D cells treated with the compounds for one day and for 11 days. Northern blots were prepared with probes for the early growth related genes c-myb and c-myc and beta actin and histone H3 were used as controls. Increased expression of c-myb occurs transiently, and early, when growth is induced by erythropoietin and IL-3.
The first lane is from cells cultured in no IL-3, lane 2 in 25 U/ml murine IL3 and lanes 3-18 have low IL-3 concentration (0.5 U/ml) plus test compounds. […] All compounds were tested here at 1 mM. […] 20 ug of total RNA from each sample were subjected to Northern blot analysis using specific probes for c-myb, c-myc, actin, and histone H3. One day and 11-day samples from the same treated cells were quantitated by PhosphoImager.

32D cells = assay: Proliferation studies using 32D cells at low IL-3; assay type: cell-based, murine; details: 0.5 U/ml IL-3, 1 mM; listed as butyrate
Procedure: 32D cells were cultured in RPMI media with 10% fetal bovine serum (Sigma, St. Louis, Mo.), […] glutamine (GIBCO), and murine IL3 (20 U/ml) (Biosource International). Growth factor controls used included the standard concentration of IL-3 required for proliferation of these cells (25 U/ml) and a 50-fold lower concentration (0.5 U/ml), and erythropoietin (3 U/ml) or G-CSF ( U/ml), (Amgen, Thousand Oaks, Calif.). The test compounds were added at final concentrations of 1 mM. As a cell density of 2.5−10×10^5 is necessary for growth of this cell line, this density was maintained by passing the cells at three day intervals or by concentrating the cells when apoptosis occurred. Proportions of cells which were viable or apoptotic, and the fraction of cells in each part of the cell cycle was assessed by incubating the cells with Trypan blue and enumeration, and with propidium iodide incubation and FACScan analysis as previously described.
The effects of the representative compounds which have been synthesized or selected for resistance to beta oxidative metabolism and glucuronidation in stimulating γ globin gene expression in a human erythroid-like cell line and for their effects on cell growth utilizing a multi-lineage murine hematopoietic cell line, 32D. This cell line is dependent on high concentrations of IL-3 for growth. […]

[5] = primer extension, 1 mM, three days of culture, FIG. 1

SMILES | Radioactivity Alpha Globin (α) mRNA (K562 cells; 1 mM) | Radioactivity Fetal Globin (γ) mRNA (K562 cells; 1 mM) | γ/α (K562 cells; 1 mM) | fold induction at 1000 µM (K562 cells; [5]) | other results
COc1ccc(OC)c(CC(=O)O)c1 [ST 40, 2,5 {dimethoxy phenyl} acetic acid] | 85941 | 1240100 | 14.4 | – | –
O=C(O)COc1ccccc1 [PAA, phenoxyacetic acid] | 507148 | 2755891 | 5.4 | – | fold induction at 1000 µM (K562 cells): 2.4 to 26; stimulating γ globin compared to control cells (ranking in words) (K562 cells; 1 mM): most active; pattern of globin gene stimulation in K562 cells (K562 cells): stimulated expression of both α and γ globin MRNA; Reticulocytes (fold increase) ([1]; 100 to 250 mg/kg in two daily doses, intraperitoneal, within one week): 2.5 to 7 fold; cell viability / DNA fragmentation (cell viability): reduce DNA fragmentation; system A transport of amino acids [2]: do not significantly alter; half-life (in vivo): 6.5 h
CCC(N)C(=O)O (stereo not drawn) [alpha amino-n-butyric acid, reference compound] | – | – | – | – | inducibility of gamma (fetal) globin in the transgenic mice ([1]; mouse, in vivo): has not been readily inducible
Cc1ccccc1CCC(=O)O [ST 33, 2 methyl hydrocinnamic acid] | 89473 | 1388899 | 15.5 | 2.4 to 26 | stimulating γ globin compared to control cells (ranking in words) (K562 cells; 1 mM): most active; Mean BFU-E/culture 4 cultures averaged (per 0.2 million cells) [3]: 212; % Increase over control [3]: 20.5%
NC(CC(=O)O)c1ccccc1 (stereo not drawn) [ST 30, β-aminohydrocinnamic acid] | – | – | – | – | c-myb induced [4]: 2 fold
COc1ccc(C=CC(=O)O)cc1 [4 Methoxycinnamic acid] | – | – | – | – | Mean BFU-E/culture 4 cultures averaged (per 0.2 million cells) [3]: 191; % Increase over control [3]: 8.5%
CCCC(=O)OCC [butyric acid ethyl ester] | – | – | – | – | cell viability / DNA fragmentation (cell viability): reduce DNA fragmentation
CCCC(=O)O [Butyric acid, butyric acid, reference compound] | – | – | – | 2 | stimulating γ globin compared to control cells (ranking in words) (K562 cells; 1 mM): most active; pattern of globin gene stimulation in K562 cells (K562 cells): stimulated expression of both α and γ globin MRNA; effect on 32D cells with low IL-3 (32D cells): decreased cell proliferation and cell death; also recorded: Cells die
O=C(O)/C=C/c1ccccc1 [ST 47, transcinnamic acid] | – | – | – | 2.4 to 26 | Mean BFU-E/culture 4 cultures averaged (per 0.2 million cells) [3]: 322; % Increase over control [3]: 18%
CC(C)C(N)=O [isobutyramide, reference compound] | – | – | – | – | cell viability / DNA fragmentation (cell viability): decrease cell viability
COc1ccc(CCC(=O)O)cc1OC [ST 38, 3-3,4-dimethoxy phenyl propionic acid] | 191985 | 1858358 | 9.7 | – | –
COc1ccccc1C=CC(=O)O [ST 32, 2-methoxycinnamic acid] | 36751 | 957146 | 26.0 | 2.4 to 26 | stimulating γ globin compared to control cells (ranking in words) (K562 cells; 1 mM): most active
COc1cc(C=CC(=O)O)cc(OC)c1O [ST 44, 3,5 dimethoxy 4-hydroxy cinnamic acid] | – | – | – | 2.4 to 26 | Mean BFU-E/culture 4 cultures averaged (per 0.2 million cells) [3]: 215; % Increase over control [3]: 11%
COc1ccc(CC(=O)O)cc1OC [ST 37, 3,4 dimethoxy phenyl acetic acid] | 106875 | 1206529 | 11.3 | 2.4 to 26 | –
COc1ccccc1/C=C\C(=O)O [ST 34, cis-2-methoxycinnamic acid] | 105452 | 2255627 | 21.4 | 2.4 to 26 | pattern of globin gene stimulation in K562 cells (K562 cells): decreased expression of α globin
